# No end group written: not given here. *: point of attachment. Myristoyl = CCCCCCCCCCCCCC(=O)*
# Assays:
# PKCδ [1] = assay: PKCδ kinase activity of immunoprecipitates from stimulated keratinocytes; assay type: cell-based, murine; settings: 10^−7 M insulin or 10^−8 M IGF1 for 1, 15 or 30 minutes
# Method: To determine PKCδ activity, five-day keratinocyte cultures were stimulated with 10^−7 M insulin (Ins) or 10^−8 M IGF1 (IGF) for the designated times (1, 15, or 30 minutes). PKCδ was immunoprecipitated from membrane (blue bars, mem) and cytosol (purple bars, cyto) fractions using specific anti-PKCδ antibody. PKCδ immunoprecipitates were analyzed for PKC activity utilizing an in vitro kinase assay as described in experimental procedures. Each bar represents the mean±SE of 3 determinations in 3 separate experiments. Values are expressed as pmol ATP/dish/min.
# (§1) PKC activity: Specific PKC activity was determined in freshly prepared immunoprecipitates from keratinocyte cultures following appropriate treatments. These lysates were prepared in RIPA buffer without NaF. Activity was measured with the use of the SignaTECT Protein Kinase C Assay System (Promega, Madison, Wis., USA) according to the manufacturer's instructions. PKCα pseudosubstrate was used as the substrate in these studies.
# (§2) In order to determine whether the translocation of PKCδ is sufficient for activation, kinase activity of PKC immunoprecipitates from the cytoplasm and membrane fractions of insulin and IGF1 treated keratinocytes was measured.
# primary keratinocytes = assay: Keratinocyte proliferation by [3H]thymidine incorporation; assay type: cell-based, murine; settings: for concentration of maximal induction of thymidine incorporation: stimulated for 24 hours, proliferating keratinocytes in low Ca2+
# Method: Proliferating keratinocytes were maintained for five days in low Ca^2+ medium (0.05 mM) until they reached 80% confluence. (A) Five-day keratinocyte cultures were stimulated for 24 hours with insulin or IGF1 at the designated concentrations. (B) In parallel, keratinocytes were stimulated with 10^−7 M insulin (Ins) and increasing doses of IGF1 (IGF). At each concentration the right column (striped bar) represents proliferation observed when both hormones were added together. […] Thymidine incorporation was measured as described in experimental procedures. The results shown are representative of 6 experiments. Each bar represents the mean±SE of 3 determinations expressed as percent above control unstimulated keratinocytes.
# Non-infected (light blue bars), or cells over-expressing WTPKCδ (dark blue bars) or DNPKCδ (slashed blue bars) were treated for 24 hours with 10^−7 M insulin (Ins), 10^−8 M IGF1 (IGF) or both (Ins+IGF). Thymidine incorporation was measured as described in experimental procedures. Each bar represents the mean±SE of 3 determinations in 3 experiments done on separate cultures. Values are expressed as percent of control, unstimulated cells from the same culture in each experiment.
# Isolation and culture of murine keratinocytes: Primary keratinocytes were isolated from newborn skin as previously described (18). Keratinocytes were cultured in Eagle's Minimal Essential Medium (EMEM) containing 8% Chelex (Chelex-100, BioRad) treated fetal bovine serum. To maintain a proliferative basal cell phenotype, the final Ca^2+ concentration was adjusted to 0.05 mM. Experiments were performed five to seven days after plating.
# Cell proliferaion: Cell proliferation was measured by [^3H]thymidine incorporation in 24 well plates. Cells were pulsed with [^3H]thymidine (1 μCi/ml) overnight. After incubation, cells were washed five times with PBS and 5% TCA was added into each well for 30 minutes. The solution was removed and cells were solubilized in 1% Triton X-100. The labeled thymidine incorporated into cells was counted in a ^3H-window of a Tricarb liquid scintillation counter.
# PKCδ [2] = assay: Translocation of PKCδ from cytosol to membrane in proliferating keratinocytes (Western blot); assay type: cell-based, murine; settings: 10^−7 M insulin or 10^−8 M IGF1; as early as 5 minutes following stimulation
# Method: Primary keratinocytes were isolated and plated as described in the Examples section that follows. Proliferating keratinocytes were maintained for five days in low Ca^2+ medium (0.05 mM) until they reached 80% confluency. Cells were stimulated with 10^−7 M insulin (Ins) or 10^−8 M IGF1 (IGF) for 15 minutes. Cells were lysed, as described, and 20 μg of membrane or cytosol extracts of stimulated and control unstimulated (Cont) cells were subjected to SDS-PAGE and transfer. Blots were probed with specific polyclonal antibodies to each PKC isoform.
# Isolation and culture of murine keratinocytes: Primary keratinocytes were isolated from newborn skin as previously described (18). […]
# Preparation of cell extracts and Western blot analysis: For crude membrane fractions, whole cell lysates were prepared by scraping cells into PBS containing 10 μg/ml aprotinin, 10 μg/ml leupeptin, 2 μg/ml pepstatin, 1 mM PMSF, 10 mM EDTA, 200 μM NaVO4 and 10 mM NaF. […] Protein concentrations were measured using a modified Lowery assay (Bio-Rad DC Protein Assay Kit). […]
# In order to try and identify the endogenous factors, which activate specific PKC isoforms regulating skin proliferation, the ability of several growth factors which are known to promote keratinocyte proliferation including: EGF, KGF, insulin, PDGF and IGF1 to activate specific PKC isoforms in a growth dependent manner was assessed. […]
# PKCs α, ε, η, or ζ = assay: Kinase activity of other PKC isoforms after insulin stimulation of keratinocytes; assay type: cell-based, murine; settings: up to 30 minutes following insulin stimulation
# Method: as §1, §2
# [3] = tested on: incision wounds on the back of C57BL mice; assay: Effect of PKCα inhibitor and insulin on wound inflammation in vivo (Example 23); settings: for Incidence of severe inflammation I wound (%): treated daily for 7 days, 1 μM of each agent, observed seven days after wounding
# Method: Late and severe inflammatory response in wounds may suppress the process of healing, thus preventing such inflammation from development may promote the wound healing process. Accordingly, the effect of PKCα inhibitor and insulin on wound inflammation was tested in the following experiment. Wounds were effected on the back of C57BL mice by incision and were treated daily for 7 days with: (i) PBS, control; (ii) 1 μM of a PKCα inhibitor (pseudosubstrate myristolated; Calibiochem, USA); (iii) 1 μM insulin (Eli Lilly, USA); or a mixture of 1 μM PKCα inhibitor and 1 μM insulin.
# [4] = tested on: incision wounds on the back of C57BL mice; assay: Single vs. multiple applications of insulin for wound healing in vivo (Example 20)
# Method: Wounds were effected on the back of 8-10 week old C57BL mice by incision and were treated with different concentrations and frequencies of insulin applications (i.e., seven daily repeat applications vs. a single application). The treated mice were sacrificed seven days after wounding and the areas of treated wounds were measured. The results are presented as mm^2 wound area and each bar represents the mean of six replications±standard deviation (p<0.005).
# Wounds were effected on the back of 8-10 week old C57BL mice by incision and were treated with different concentrations of insulin and frequencies of applications (i.e., seven daily repeat applications vs. a single application). Histological wound sections were performed seven days after wounding and were analyzed for epidermal and dermal closure (wound contraction). Epidermal closure was assessed by Keratin 14 (K14) antibody staining (left panel) and was considered positive if the wound was stained positive across the entire gap. The dermal closure was considered positive if both dermal wound sides could be observed under a light microscope in a single field at ×10 magnification (right panel). The results are presented as percent of wound closure over control and each bar represents the mean of six replications.
# Wounds were effected on the back of 8-10 week old C57BL mice by incision and were treated as follows: (i) insulin 0.1 μM applied daily for 7 days; (ii) insulin 1 μM applied daily for 7 days; (iii) insulin 10 μM applied daily for 7 days; (iv) insulin 1 μM applied once 4 days after wounding; and (v) vehicle (PBS) control applied daily for 7 days. All mice were sacrificed seven days after wounding and their open wound areas were measured.
# Since the observed wounds were covered with a scar tissue it was difficult to correctly assess the actual closure of the wound and the formation of reconstructed epidermis. Therefore the effects of insulin on epidermal and dermal closure of wounds tissue were determined by histological parameters. Epidemial closure of wounds was determined by staining wound sections with Keratin 14 antibody (K14, Babco-Convance, Richmond, Calif., USA) which highlighted the formation of basal cells at the wound gap. Dermal closure of wounds was considered positive if both wound sides the dermis could be observed in a single field observed under a light microscope at ×10 magnification.
# STAT3 = assay: Insulin induced STAT3 activation and nuclear translocation in keratinocytes (immunofluorescence); assay type: cell-based, murine; settings: 5 μM Rottlerin for 7 minutes, followed by 10^−7 M insulin for 5 minutes
# Method: Primary keratinocytes were plated on glass slides and maintained for 5 days in low Ca^++ medium (0.05 mmol/l) until they reached 80% confluency. Cells were untreated (Cont, upper panel) or pre-treated with 5 μM Rottlerin for 7 minutes (R, lower panel), followed by 10^−7 M insulin for 5 minutes (Ins). Cells were fixed by methanol, washed and air-dried. Cultures were analyzed by immunofluorescence using antiphospho-Tyr-705-STAT3 antibody, followed by FITC conjugated secondary antibody. Cells were scanned by confocal microscopy.
# Immunofluorescence: Primary keratinocytes were plated on laminin 5 coated glass slides. Two days old keratinocytes were infected with PKC adenovirus for one hour, washed twice with PBS and maintained in culture in low Ca^2+ EMEM. Twenty four hours post infection, cells were fixed in 4% paraformaldehyde for 30 minutes followed by permeabilization with 0.2% Triton for 5 minutes. For analysis, control and PKC infected keratinocytes were rinsed with PBS and incubated overnight at 4° C. with PKC antibodies (Santa Cruz) diluted in 1% BSA in PBS. […] Following two washes in PBS, slides were mounted with glycerol buffer containing 1% of p-phenylenediamine (Sigma) and fluorescence examined by laser scanning confocal imaging microscopy (MRC 1024, Bio-Rad, UK).
# [5] = tested on: over-expressed PKC isoforms; assay: Translocation of over-expressed PKC isoforms by PKC activator in infected keratinocytes; assay type: cell-based, mouse; settings: stimulated for 30 minutes, 24 hours following infection
# Method: Four day old primary keratinocytes were infected for 1 hour with isoform specific recombinant PKC adenoviruses. Twenty four hours following infection, cells were either untreated (C) or stimulated with bryostatin 1 (B) for 30 minutes, and fractionated. Protein samples were subjected to Western blotting and analyzed using isoform specific anti-PKC antibodies.
# Preparation of cell extracts and Western blot analysis: For crude membrane fractions, whole cell lysates were prepared by scraping cells into PBS containing 10 μg/ml aprotinin, 10 μg/ml leupeptin, 2 μg/ml pepstatin, 1 mM PMSF, 10 mM EDTA, 200 μM NaVO4 and 10 mM NaF. After homogenization and 4 freeze/thaw cycles, lysates were spun down at 4° C. for 20 minutes in a microcentrifuge at maximal speed. The supernatant containing the soluble cytosol protein fraction was transferred to another tube. The pellet was resuspended in 250 μl PBS containing 1% Triton X-100 with protease and phosphatase inhibitors, incubated for 30 minutes at 4° C. and spun down in a microcentrifuge at maximal speed at 4° C. The supernatant contains the membrane fraction. Protein concentrations were measured using a modified Lowery assay (Bio-Rad DC Protein Assay Kit). Western blot analysis of cellular protein fractions was carried out as described (6). […]
compound,measurement,setting,value
"insulin: humulinR-recombinant human insulin, purchased from Eli Lilly",activity of PKCδ in the membrane fraction,PKCδ [1],increased activity of PKCδ
same,concentration of maximal induction of thymidine incorporation,primary keratinocytes,10^−7 M
same,increase of thymidine incorporation over untreated cells,"primary keratinocytes; untransfected cells, 10^−7 M insulin for 24 hours",two to three fold
same,translocation of PKCδ between cytoplasm and membrane fractions,PKCδ [2],specifically induced translocation of PKCδ from the cytoplasm to the membranal fractions
same,"activation of PKCs α, ε, η, or ζ","PKCs α, ε, η, or ζ",no activation
same,effect on severe wound inflammation,[3]; 1 μM daily for 7 days,not effective
same,Incidence of severe inflammation I wound (%),[3],56.0%
same,open wound area,"[4]; 1 μM applied once 4 days after wounding, compared with seven repeat daily applications at 1 μM",substantially more effective
same,open wound area,"[4]; 1 μM daily for 7 days, compared with daily 0.1 μM or 10 μM",significantly more effective
same,epidermal and dermal closure (histology),"[4]; 1 μM daily, compared with daily 0.1 μM or 10 μM",significantly more effective
same,epidermal and dermal closure (histology),"[4]; all insulin treatments (0.1, 1, 10 μM daily; 1 μM single)",effectively promoted epidermal and dermal closure
same,epidermal and dermal closure (histology),"[4]; single application 1 μM, compared with seven repeat daily applications at 1 μM",substantially more effective
"PKCα inhibitor: PKCα inhibitor of SEQ ID NO:1, PKCα pseudosubstrate myristoylated; Calbiochem (Myristoyl-FARKGALRQ)","decrease of severe wound inflammation incidence, as compared to control",[3]; 1 μM daily for 7 days,33.3%
same,Incidence of severe inflammation I wound (%),[3],40.0%
"IGF1: growth factor IGF1, a gift from Cytolab (Israel)",activity of PKCδ in the membrane fraction,PKCδ [1],insulin but not IGF1 increased activity of PKCδ
same,"maximal stimulation of thymidine incorporation, compared at each concentration",primary keratinocytes; 24 hours,greater than that by insulin
same,concentration of maximal induction of thymidine incorporation,primary keratinocytes,10^−8 M
same,translocation of PKCδ between cytoplasm and membrane fractions,PKCδ [2],reduced PKCδ expression in the membrane
CC(=O)c1c(O)c(C)c(O)c(Cc2c(O)c3c(c(C(=O)/C=C/c4ccccc4)c2O)OC(C)(C)C=C3)c1O [rottlerin],activation and nuclear translocation of STAT3 after insulin,STAT3,inhibits activation as well as nuclear translocation of STAT3
CCC/C=C/C=C/C(=O)O[C@H]1/C(=C/C(=O)OC)C[C@H]2C[C@H]([C@@H](C)O)OC(=O)C[C@H](O)C[C@@H]3C[C@H](OC(C)=O)C(C)(C)[C@](O)(C[C@@H]4C/C(=C/C(=O)OC)C[C@H](/C=C/C(C)(C)[C@]1(O)O2)O4)O3 [bryostatin 1],translocation of PKCα and δ proteins to the membrane fraction,[5],induced translocation
same,translocation of PKCη and ζ isoforms to the membrane fraction,[5],lesser effect

# — patent publication US8093211B2, “Methods and pharmaceutical compositions for healing wounds” (Bar-Ilan University, priority 2001, dated 2012)
